Here are results for 1 molecule from patent publication US20240051976A1, “A Tracer Compound and a Preparation Method Thereof” (Turun Yliopisto, priority 2020, published 2024).

The subject of one data set is B16/F10 melanoma cells. As to the kind of experiment: Nonspecific B16/F10 melanoma cell-uptake (free, membrane-bound, internalized fractions). It is filed as cell-based, mouse. The following applies: for radioactivity in the free fraction outside the cells: n=3. As to the method: Rat pancreatic tumor cell line AR42J that expresses SSTR was obtained from American Type Culture Collection (Manassas, VA). C4-2 cells (ATCC® CRL-3314™) were cultured in DMEM medium (Gibco) supplemented with 18% F12 medium (Sigma), 10% FBS (Gibco) and 1% T-medium. Both cell lines were grown in at 37° C. in a humidified incubator containing 5% C02. Cells grown to 80%-90% confluence were used for either in vitro or in vivo experiments. Mouse skin melanoma B16/F10 cells were cultured in CO2 Independent Medium (Life Technologies Gibco, cat. #18045054) supplemented with GlutaMax (1× final concentration, 10% FBS and Pen-Strep at 37° C. in a humidified incubator. The B16/F10 cell viability was 97%. The C4-2 cells (ATCC® CRL-3314™) were cultured in DMEM medium (Gibco) supplemented with 18% F12 medium (Sigma), 10% FBS (Gibco) and 1% T-medium. Both cell lines were grown in at 37° C. in a humidified incubator containing 5% C02. Cells grown to 80%-90% confluence were used for either in vitro or in vivo experiments.
500 000 cells/well were seeded overnight on 6-well plates. The growth media was removed and the reaction media containing the radiotracer [^18F]4 was added. […] The membrane-bound fraction was collected by adding cold glycine buffer (1 mL) on the cells, incubating for 5 minutes on an ice bath, removing the supernatant, repeating the procedure, and washing the cells with cold 1×PBS, and collecting all the supernatants to the same microtube. For determining the internalized fraction, 1 M NaOH was added on the cells and left to incubate in ambient temperature for 10 minutes. The supernatant was removed and the cells were washed twice with cold 1×PBS, and the supernatants were collected into the same microtube. The supernatants collected separately in each phase, were measure with a gamma counter for determining the radioactivity-ratio (%) of each fraction. […] The radioactivity distribution between the aforementioned fractions is depicted in FIG. 9.

Data set [1] can be described thus: PET/CT, biodistribution and elimination in control SCID mice. The class given is in vivo, mouse. The note with it: intravenous. As to the method: [^18F]AmBF3-Tz ([^18F]4) was formulated in 10% ethanol in 0.01 M PBS and administered intravenously to SCID mice. The PET/CT image was acquired with Inveon PET/CT and Molecubes PET and CT.
[^18F]AmBF3-Tz ([^18F]4) was formulated in 10% ethanol in 0.01 M PBS and administered intravenously to SCID mice. The standardized uptake values (SUVs) presenting the elimination profile (FIGS. 13a and 13b) were determined from the PET image by drawing regions-of-interest (ROI) around selected organs (heart, liver, kidney, lung, muscle, urinary bladder) and by measuring the ratio of radioactivity per unit volume of that ROI and normalized to the injected dose.

Turning to `C[N+](C)(CCNC(=O)Cc1ccc(-c2nncnn2)cc1)C[B-](F)(F)F` [[^18F]4, {[(2-{2-[4-(1,2,4,5-tetrazin-3-yl)phenyl]acetamido}ethyl)dimethylammonio]methyl}trifluoroborate], the “radioactivity in the free fraction outside the cells” value in the data set on B16/F10 melanoma cells (B16/F10 cells, 15 min) is 99.3±0.09%; in the data set on B16/F10 melanoma cells (B16/F10 cells, 240 min), 99.3±0.08%. The “% of total radioactivity in the free fraction” value with B16/F10 melanoma cells (B16/F10 cells, at each time point (FIG. 9)) is given as “Over 99%”. In addition, the “nonspecific uptake in B16/F10 cells” value in the data set on B16/F10 melanoma cells (throughout the study) was “did not demonstrate nonspecific uptake”. Moreover, in data set [1], the main elimination route entry is given as “through kidneys”. The “in vivo stability (bone uptake)” value in data set [1] (PET/CT and biodistribution) is on record as “excellent stability”.
